Test results: ChEMBL document CHEMBL1141373 (J Med Chem, 2007)
Each block holds one molecule with its values, some of them ahead of it.

Legend:
[1] = biological target: T1, Glutamate receptor ionotropic, NMDA 2B (Homo sapiens, UniProt Q05586+Q13224); assay: Displacement of [3H](E)-N1-(2-methoxybenzyl)cinnamamidine from human NR2B expressed in Ltk- cells; type: cell-based
Cytochrome P450 3A4 = Cytochrome P450 3A4 (Homo sapiens, UniProt P08684); assay: Inhibition of CYP3A4 in human liver microsomes
Cytochrome P450 2C9 = Cytochrome P450 2C9 (Homo sapiens, UniProt P11712)
Description: Inhibition of CYP2C9 in human liver microsomes

Cytochrome P450 2D6 = Cytochrome P450 2D6 (Homo sapiens, UniProt P10635); assay: Inhibition of CYP2D6 in human liver microsomes
[2] = Half life in Beagle dog at 0.5 mg/kg, iv; type: ADME, organism-based, Canis lupus familiaris; set-up: dose 0.5 mg/kg, route intravenous; conditions: in vivo
[3] = biological target: Glutamate receptor ionotropic, NMDA 2A (Homo sapiens, UniProt Q05586+Q12879); assay: Activity at human NR2A expressed in Ltk- cells by calcium flux assay; type: cell-based
Rattus norvegicus [4] = assay: Reversal of carrageenan-induced mechanical hyperalgesia in po dosed rat; type: functional
[5] = Plasma concentration in rat at 30 mg/kg, po after 1 hr; type: ADME, organism-based; set-up: dose 30 mg/kg, route oral
[6] = Half life in Sprague-Dawley rat at 2 mg/kg, iv; type: ADME, organism-based; set-up: dose 2 mg/kg, route intravenous; conditions: in vivo
[7] = Oral bioavailability in Sprague-Dawley rat at 10 mg/kg, po; type: ADME, organism-based; conditions: in vivo
[8] = Cmax in Beagle dog at 1 mg/kg, po; type: ADME, organism-based, Canis lupus familiaris; set-up: dose 1 mg/kg, route oral; conditions: in vivo
[9] = Cmax in Sprague-Dawley rat at 10 mg/kg, po; type: ADME, organism-based; set-up: dose 10 mg/kg, route oral; conditions: in vivo
Homo sapiens = species on record: Homo sapiens; assay: Selectivity for human NR2B over hERG
[10] = Drug level in rat brain at 30 mg/kg, po after 1 hr; type: ADME, organism-based; set-up: dose 30 mg/kg, route oral; conditions: read-out: Drug uptake
Rattus norvegicus [11] = assay: Reversal of carrageenan-induced mechanical hyperalgesia in iv dosed rat; type: functional
Canis familiaris = assay: AUC in Beagle dog at 0.5 mg/kg, iv; type: ADME, organism-based, Canis lupus familiaris, Plasma; set-up: dose 0.5 mg/kg, route intravenous; conditions: in vivo
[12] = biological target: T1, Glutamate receptor ionotropic, NMDA 2B; assay: Antagonist activity at human NR2B expressed in Ltk- cells by calcium flux assay; type: functional, cell-based
[13] = Oral bioavailability in Beagle dog at 1 mg/kg, po; type: ADME, organism-based, Canis lupus familiaris; conditions: in vivo
Rattus norvegicus [14] = assay: AUC in Sprague-Dawley rat at 2 mg/kg, iv; type: ADME, organism-based, Plasma; set-up: dose 2 mg/kg, route intravenous; conditions: in vivo

Chain of Cytochrome P450 3A4 (P08684 whole entry): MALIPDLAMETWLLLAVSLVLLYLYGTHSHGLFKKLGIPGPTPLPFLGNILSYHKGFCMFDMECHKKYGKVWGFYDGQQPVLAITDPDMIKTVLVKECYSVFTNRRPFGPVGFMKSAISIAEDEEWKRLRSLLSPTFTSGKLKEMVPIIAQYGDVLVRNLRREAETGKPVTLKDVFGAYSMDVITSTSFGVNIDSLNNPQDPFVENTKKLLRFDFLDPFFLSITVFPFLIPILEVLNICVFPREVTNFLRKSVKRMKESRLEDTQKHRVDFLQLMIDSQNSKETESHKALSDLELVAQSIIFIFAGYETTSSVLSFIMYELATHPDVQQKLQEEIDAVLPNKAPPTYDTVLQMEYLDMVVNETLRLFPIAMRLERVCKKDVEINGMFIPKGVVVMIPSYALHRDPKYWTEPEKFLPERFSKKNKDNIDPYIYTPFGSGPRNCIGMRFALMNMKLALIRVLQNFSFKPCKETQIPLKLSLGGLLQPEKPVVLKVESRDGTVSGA
Chain of Cytochrome P450 2C9 (P11712 whole entry): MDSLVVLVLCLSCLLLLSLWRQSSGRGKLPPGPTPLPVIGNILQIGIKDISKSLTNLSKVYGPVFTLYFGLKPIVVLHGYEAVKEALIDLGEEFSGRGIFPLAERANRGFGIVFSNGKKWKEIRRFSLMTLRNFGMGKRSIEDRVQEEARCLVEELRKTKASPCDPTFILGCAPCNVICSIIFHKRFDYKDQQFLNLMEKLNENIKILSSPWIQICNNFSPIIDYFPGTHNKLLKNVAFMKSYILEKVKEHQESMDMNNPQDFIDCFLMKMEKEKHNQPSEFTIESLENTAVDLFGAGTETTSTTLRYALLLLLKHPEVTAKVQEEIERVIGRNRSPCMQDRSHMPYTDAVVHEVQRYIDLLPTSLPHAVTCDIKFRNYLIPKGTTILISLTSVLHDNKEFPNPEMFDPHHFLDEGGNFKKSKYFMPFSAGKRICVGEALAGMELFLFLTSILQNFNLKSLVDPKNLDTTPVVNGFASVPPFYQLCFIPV
T1 sequence (Q13224 whole entry, one chain of several): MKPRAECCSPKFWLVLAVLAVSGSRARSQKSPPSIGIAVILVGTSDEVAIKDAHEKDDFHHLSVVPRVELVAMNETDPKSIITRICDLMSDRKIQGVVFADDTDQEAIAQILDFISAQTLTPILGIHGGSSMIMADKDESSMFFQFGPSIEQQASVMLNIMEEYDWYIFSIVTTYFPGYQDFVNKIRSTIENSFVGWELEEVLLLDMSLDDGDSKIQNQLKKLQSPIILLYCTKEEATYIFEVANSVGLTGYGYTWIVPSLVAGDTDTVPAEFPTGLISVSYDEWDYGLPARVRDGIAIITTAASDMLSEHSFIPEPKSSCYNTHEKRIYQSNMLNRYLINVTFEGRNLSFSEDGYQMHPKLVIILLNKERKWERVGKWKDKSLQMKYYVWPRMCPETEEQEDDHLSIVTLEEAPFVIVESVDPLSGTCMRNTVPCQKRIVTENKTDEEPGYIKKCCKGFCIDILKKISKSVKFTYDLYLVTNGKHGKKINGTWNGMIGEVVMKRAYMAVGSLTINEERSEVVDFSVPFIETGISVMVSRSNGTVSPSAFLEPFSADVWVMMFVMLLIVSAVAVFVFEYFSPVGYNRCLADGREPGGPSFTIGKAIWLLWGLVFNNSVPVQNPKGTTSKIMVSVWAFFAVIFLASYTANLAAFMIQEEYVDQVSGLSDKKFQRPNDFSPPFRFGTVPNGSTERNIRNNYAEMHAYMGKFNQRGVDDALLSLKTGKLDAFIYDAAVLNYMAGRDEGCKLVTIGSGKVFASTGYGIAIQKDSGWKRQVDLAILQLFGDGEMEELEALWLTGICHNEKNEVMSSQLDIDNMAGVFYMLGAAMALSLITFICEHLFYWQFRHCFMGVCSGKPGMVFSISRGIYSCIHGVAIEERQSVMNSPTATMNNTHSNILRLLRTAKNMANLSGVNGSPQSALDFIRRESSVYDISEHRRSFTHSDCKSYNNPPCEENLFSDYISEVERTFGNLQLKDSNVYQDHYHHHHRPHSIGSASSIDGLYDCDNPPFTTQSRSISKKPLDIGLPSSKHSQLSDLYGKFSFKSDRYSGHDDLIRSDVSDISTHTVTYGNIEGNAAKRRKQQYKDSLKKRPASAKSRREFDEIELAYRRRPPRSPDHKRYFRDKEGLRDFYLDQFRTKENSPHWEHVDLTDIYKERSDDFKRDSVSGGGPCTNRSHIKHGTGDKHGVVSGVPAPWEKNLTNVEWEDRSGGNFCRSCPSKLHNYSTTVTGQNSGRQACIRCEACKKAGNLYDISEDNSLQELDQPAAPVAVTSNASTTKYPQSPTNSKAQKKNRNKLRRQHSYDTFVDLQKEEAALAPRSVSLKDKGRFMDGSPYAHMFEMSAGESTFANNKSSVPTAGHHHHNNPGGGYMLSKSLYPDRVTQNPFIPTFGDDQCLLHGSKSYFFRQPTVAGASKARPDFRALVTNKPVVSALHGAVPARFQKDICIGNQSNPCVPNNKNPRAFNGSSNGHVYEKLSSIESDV
Chain of Cytochrome P450 2D6 (P10635 whole entry): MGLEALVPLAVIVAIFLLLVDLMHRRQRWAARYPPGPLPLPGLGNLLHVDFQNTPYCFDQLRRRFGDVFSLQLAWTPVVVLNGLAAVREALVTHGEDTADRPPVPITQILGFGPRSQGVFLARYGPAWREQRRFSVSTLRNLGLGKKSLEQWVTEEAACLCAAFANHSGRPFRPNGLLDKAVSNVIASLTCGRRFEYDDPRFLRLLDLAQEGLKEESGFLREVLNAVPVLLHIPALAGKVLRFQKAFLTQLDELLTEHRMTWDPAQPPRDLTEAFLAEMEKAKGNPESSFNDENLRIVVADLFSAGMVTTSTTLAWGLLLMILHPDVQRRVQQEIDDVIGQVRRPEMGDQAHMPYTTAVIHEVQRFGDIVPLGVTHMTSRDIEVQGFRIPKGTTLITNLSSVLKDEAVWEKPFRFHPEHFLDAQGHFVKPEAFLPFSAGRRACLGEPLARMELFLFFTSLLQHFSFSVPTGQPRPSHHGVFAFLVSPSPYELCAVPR
Chain of Glutamate receptor ionotropic, NMDA 2A (Q12879 whole entry, one chain of several): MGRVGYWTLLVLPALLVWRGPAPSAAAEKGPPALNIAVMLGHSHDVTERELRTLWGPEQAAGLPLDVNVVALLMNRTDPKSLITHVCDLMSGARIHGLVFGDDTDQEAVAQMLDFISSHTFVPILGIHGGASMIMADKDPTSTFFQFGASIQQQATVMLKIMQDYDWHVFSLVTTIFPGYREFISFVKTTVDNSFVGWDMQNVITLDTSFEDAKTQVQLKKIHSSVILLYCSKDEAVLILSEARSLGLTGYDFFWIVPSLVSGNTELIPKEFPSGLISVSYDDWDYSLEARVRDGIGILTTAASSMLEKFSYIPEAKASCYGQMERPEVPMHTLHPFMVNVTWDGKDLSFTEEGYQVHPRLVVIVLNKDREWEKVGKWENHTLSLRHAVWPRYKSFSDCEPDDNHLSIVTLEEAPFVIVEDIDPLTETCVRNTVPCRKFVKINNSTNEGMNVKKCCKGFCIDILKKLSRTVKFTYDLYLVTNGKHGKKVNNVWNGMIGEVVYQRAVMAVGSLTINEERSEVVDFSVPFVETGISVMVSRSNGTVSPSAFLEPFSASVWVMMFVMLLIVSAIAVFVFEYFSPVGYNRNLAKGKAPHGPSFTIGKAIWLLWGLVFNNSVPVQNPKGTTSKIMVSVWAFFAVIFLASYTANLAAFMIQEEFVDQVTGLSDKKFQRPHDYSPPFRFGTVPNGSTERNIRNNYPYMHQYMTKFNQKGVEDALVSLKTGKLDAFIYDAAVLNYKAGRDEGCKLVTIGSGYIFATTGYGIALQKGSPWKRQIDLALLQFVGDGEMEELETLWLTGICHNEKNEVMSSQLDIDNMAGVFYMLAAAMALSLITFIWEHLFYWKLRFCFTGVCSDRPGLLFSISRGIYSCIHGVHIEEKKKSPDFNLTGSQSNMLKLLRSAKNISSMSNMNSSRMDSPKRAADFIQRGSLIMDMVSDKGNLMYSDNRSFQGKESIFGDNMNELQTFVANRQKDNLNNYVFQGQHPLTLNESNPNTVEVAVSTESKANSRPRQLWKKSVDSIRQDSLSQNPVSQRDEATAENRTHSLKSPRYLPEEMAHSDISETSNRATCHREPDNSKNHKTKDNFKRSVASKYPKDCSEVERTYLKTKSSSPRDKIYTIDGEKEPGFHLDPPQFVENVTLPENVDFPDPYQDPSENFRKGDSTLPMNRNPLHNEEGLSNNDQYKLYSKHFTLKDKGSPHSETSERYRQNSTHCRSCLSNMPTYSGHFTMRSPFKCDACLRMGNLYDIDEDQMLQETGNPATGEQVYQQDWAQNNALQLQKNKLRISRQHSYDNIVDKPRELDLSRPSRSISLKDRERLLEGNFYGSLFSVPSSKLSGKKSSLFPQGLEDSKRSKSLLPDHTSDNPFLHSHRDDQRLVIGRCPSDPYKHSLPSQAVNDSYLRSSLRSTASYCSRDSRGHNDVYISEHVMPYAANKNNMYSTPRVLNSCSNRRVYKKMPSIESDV

Ki [1]: 2100 nM
SMILES: Cc1ccc(COC(=O)N2CCC(CN(C)c3ncccn3)CC2)cc1

Ki [1]: 18 nM
SMILES: O=C(OCc1ccc(F)cc1)N1CCC(CNc2ncccn2)CC1

IC50 (Cytochrome P450 3A4): 9100 nM
IC50 (Cytochrome P450 2C9): 12000 nM
Ki [1]: 180 nM
IC50 (Cytochrome P450 2D6): 1700 nM
SMILES: O=C(OCc1ccccc1)N1CCC(CNc2cccnc2)CC1

Ki [1]: 206 nM
SMILES: Cc1cccc(COC(=O)N2CCC(CNc3ncccn3)CC2)c1

SMILES: Cc1ccc(COC(=O)N2CCC(Nc3ncccn3)CC2)cc1
Ki [1]: > 15000 nM

Ki [1]: 7.8 nM
SMILES: CC(C)c1ccc(COC(=O)N2CCC(CNc3ncccn3)CC2)cc1

Ki [1]: 23 nM
SMILES: O=C(OC1Cc2ccccc2C1)N1CCC(CNc2ncccn2)CC1

Ki [1]: 460 nM
SMILES: COc1ccc(COC(=O)N2CCC(CNc3ncccn3)CC2)cc1

half-life [2]: 6.5 h
EC50 [3]: > 10000 nM
concentration at 1 h [5]: 8.1 µM
half-life [6]: 1.4 h
bioavailability [7]: > 100%
Cmax [8]: 0.05 µM
Cmax [9]: 5.2 µM
IC50 (Cytochrome P450 3A4): > 25000 nM
IC50 (Cytochrome P450 2C9): 6500 nM
concentration at 1 h [10]: 11 µM
AUC (Canis familiaris): 1.7 µM·h
EC50 [12]: 1.6 nM
Ki [1]: 10.6 nM
bioavailability [13]: 11%
IC50 (Cytochrome P450 2D6): 15000 nM
AUC (Rattus norvegicus [14]): 1.9 µM·h
SMILES: O=C(OCc1ccccc1)N1CCC(CNc2ccncc2)CC1
ED50 (Rattus norvegicus [4]): 10 mg/kg
Selectivity ratio (Homo sapiens): 90
ED50 (Rattus norvegicus [11]): 3 mg/kg

Ki [1]: 220 nM
SMILES: O=C(OCc1ccccc1)N1CCC(Cc2nc3ccccc3[nH]2)CC1

Ki [1]: 1170 nM
SMILES: O=C(NCc1ccccc1)N1CCC(CNc2ncccn2)CC1

Ki [1]: 720 nM
SMILES: CC(C)(C)c1ccc(COC(=O)N2CCC(CNc3ncccn3)CC2)cc1

Ki [1]: 7400 nM
SMILES: Cc1ccc(COC(=O)N2CCC(COc3ncccn3)CC2)cc1

Ki [1]: 3100 nM
SMILES: N#CN=C(NCc1ccccc1)NN1CCC(CNc2ncccn2)CC1

IC50 (Cytochrome P450 3A4): 22000 nM
IC50 (Cytochrome P450 2C9): 12000 nM
Ki [1]: 14 nM
IC50 (Cytochrome P450 2D6): 1700 nM
SMILES: O=C(OCc1ccccc1)N1CCC(CNc2cnccn2)CC1
